# US12331302B2, “Fungal autoinducible expression system” (priority 2019, dated 2025)
# How the values were obtained:
# Format in all cases: cell-based, Saccharomyces cerevisiae
# [1] = tested on: FUS1 promoter (pFUS1); test: mCherry expression under control of pFUS1, with or without α-factor; settings: after 24 h, culture with addition of 5 μM α-factor
# Procedure: (§1) Pre-cultures are prepared by inoculation of biological triplicates in CSM with appropriate amino acid drop out, and are grown for two days at 30° C., 250 rpm. Thereafter, they are inoculated to an OD of 0.05 in two duplicate tubes, whereof one is induced with 5 μM α-factor. Strains are grown at 30° C., 250 rpm for 24 h and samples are taken for flow cytometry after 0, 8 and 24 h. For characterization of strains with endogenous α-factor production, transformation plates and pre-culture media is supplemented with 5 μg/mL doxycycline. The pre-cultures are washed to remove Bar1 and doxycycline prior to inoculation. OD is measured at 600 nm and GFP and mCherry production is measured with a BD Accuri™ C6 flow cytometer from Becton, Dickinson and Company (Franklin Lakes, NJ, USA).
# (§2) To test the initial system configuration, pFUS1-Cre and pTEF1-loxP-GFP-loxP-mCherry is transformed into strain JL275 (BY4741 MATa Δbar1 Δfar1). Precultures are grown for two days in CSM-ura-leu. Each replicate is used to inoculate two cultures, whereof one is induced with 5 μM α-factor. Fluorescence is measured after 0, 8 and 24 h. […] This indicated a high basal level expression from the FUS1 promoter, leading to leaky expression of Cre recombinase and early recombination. To investigate this hypothesis, mCherry is cloned under control of pFUS1 and mCherry expression is measured at 0 and 24 h. […]
# [2] = tested on: Ste2 receptor / pFUS1J2-ubiM-Cre circuit in strain JL275; test: Strain characterization: GFP and mCherry production by flow cytometry after α-factor induction of the Cre/loxP circuit; settings: JL275 with pFUS1J2-ubiM-Cre and pTEF1-loxP-GFP-loxP-mCherry
# Procedure: as §1, §2
# [3] = tested on: strains JL277-JL280; test: Autoinducible strains with endogenous α-factor production, fluorescence by TECAN plate reader; settings: JL277-280 with pFUS1J2-ubiM-Cre pTDH3-rtTA pTETO3-BAR1 and pTEF1-loxP-GFP-loxP-mCherry; with or without 5 μM α-factor
# Procedure: To establish autoinducible strains, the α-factor-expressing gene MFα1 under control of four different native promoters with different expression strengths (pTDH3, pPGK1, pYEF3 and pACT1) is integrated into locus p416d into the genome of JL275, resulting in strains JL277-JL280, respectively. The strains are transformed with plasmids pFUS1J2-ubiM-Cre pTDH3-rtTA pTETO3-BAR1 and pTEF1-loxP-GFP-loxP-mCherry, inoculated into CSM-ura-leu supplemented with 5 μg/mL doxycycline and pre-cultured for two days. The pre-cultures are washed and inoculated to an OD of 0.05, and grown with or without 5 μM α-factor to compare endogenous and external inducibility. The strain fluorescence is measured with a TECAN plate reader. […] The strain also continued to produce GFP unless α-factor is added. This experiment is to be repeated according to the previously established strain characterization protocol and measured with a flow cytometer.
# [4] = tested on: pTETO3-BAR1 control module in strain JL275; test: Functionality of doxycycline-inducible BAR1 expression (supernatant/α-factor mix); settings: supernatant mixed with 600 μM α-factor, 30° C., 4 h
# Procedure: The functionality of Bar1 expression is investigated by transforming JL275 with pFUS1J2-ubiM-Cre pTDH3-rtTA pTETO3-BAR1 or control plasmid pFUS1-Cre. Both strains are inoculated in media with or without 5 μg/mL doxycycline, and are grown to stationary phase where after they are spun down. 0.5 mL supernatant is mixed with 0.5 mL 600 μM α-factor and incubated at 30° C. for 4 h. A corresponding amount of 5 μM α-factor (assuming no α-factor has been degraded) from each supernatant/α-factor incubation mix is used to induce cultures of JL275 with pFUS1J2-ubiM-Cre and pTEF1-loxP-GFP-loxP-mCherry (FIG. 4A). 0 and 5 μM α-factor are used as controls.
Molecule,mCherry expression from pFUS1 compared to the background strain autofluorescence [1],"System titratability (mCherry output) ([2]; 0, 0.1, 0.5, 1, 5 or 10 μM α-factor)","GFP to mCherry production shift ([2]; 5 μM α-factor, 0, 8 and 24 h)",mCherry production induction [3],Degradation of α-factor by supernatant [4]
α-factor,approximately 20 fold,mCherry output correlating to the amount of α-factor added,clear shift from GFP to mCherry production,barely induced unless α-factor is added,
"Bar1: α-factor degrading protease (protein, UniProt P12630 25-587, looked up) Barrierpepsin: LTNDGTGHLEFLLQHEEEMYYATTLDIGTPSQSLTVLFDTGSADFWVMDSSNPFCLPNSNTSSYSNATYNGEEVKPSIDCRSMSTYNEHRSSTYQYLENGRFYITYADGTFADGSWGTETVSINGIDIPNIQFGVAKYATTPVSGVLGIGFPRRESVKGYEGAPNEYYPNFPQILKSEKIIDVVAYSLFLNSPDSGTGSIVFGAIDESKFSGDLFTFPMVNEYPTIVDAPATLAMTIQGLGAQNKSSCEHETFTTTKYPVLLDSGTSLLNAPKVIADKMASFVNASYSEEEGIYILDCPVSVGDVEYNFDFGDLQISVPLSSLILSPETEGSYCGFAVQPTNDSMVLGDVFLSSAYVVFDLDNYKISLAQANWNASEVSKKLVNIQTDGSISGAKIATAEPWSTNEPFTVTSDIYSSTGCKSRPFLQSSTASSLIAETNVQSRNCSTKMPGTRSTTVLSKPTQNSAMHQSTGAVTQTSNETKLELSSTMANSGSVSLPTSNSIDKEFEHSKSQTTSDPSVAEHSTFNQTFVHETKYRPTHKTVITETVTKYSTVLINVCKPTY",,,,,functional and degrades α-factor
